Earlier results in patent US20190022229A1, “CANNABINOID/TERPENE ENRICHED CAPRYLIC ACID” (priority 2017, published 2019).

Details: over an eight-hour period; compared with capric acid (C10) alone; from Vandenberghe et al. 2016

## CCCCCCCC(=O)O [caprylic acid]
  increase in total plasma ketone levels relative to capric acid (C10) alone: approximately three times more
